# Test results reported in patent publication US11866420B2, “Hydrochloride salt forms of a sulfonamide structured kinase inhibitor” (Aurigene Oncology Limited, priority 2018, dated 2024).
# Where a name gives a salt, the structure may show the parent alone.
# What was measured:
# Water solubility = type: physicochemical; conditions: physiological pH range
# [1] = Bioavailability after oral administration; type: in vivo
# [2] = Long-term stability of forms 3 and 8 at different storage conditions; type: physicochemical
# Description: Long-term stability of crystalline forms 3 and 8 at different storage conditions was studied. The conditions were a) 25° C./RH 60% in a closed vessel, b) 40° C./RH 75% in a closed vessel, c) 40° C./RH 75% in an open vessel and d) 25° C./RH 100% in an open vessel.
# [3] = Stability of the crystalline forms in different water activity conditions (slurry experiments); type: physicochemical; conditions: for Resulting crystalline form: HCl added; for Water activity conditions under which the crystalline form is favoured: water/methanol slurries with HCl, room temperature, 3 days
# From the text: Stability of the crystalline forms in different water activity conditions was studied in slurry experiments where crystalline forms 1 and 3 were stirred for 3 days at room temperature in mixtures of water and methanol in the presence of HCl to maintain acidic conditions.
# [4] = Thermogravimetric analysis (TGA), onset of disproportionation; type: physicochemical; conditions: for Onset temperature of disproportionation: TGA with head space mass spectroscopy, start of rapid evaporation of Cl ion
# Description: The TGA thermograms for the crystalline forms 1, 3, 5 and 8 were collected on TGA equipment (TA Instruments). The gases recovered during each run were analyzed by head space mass spectroscopy (Agilent GS system). The measurement allowed to register the temperature at which rapid evaporation of Cl ion (disproportionation) started.
# The onset temperature of disproportionation for crystalline forms 1, 3, 5 and 8 was determined based on TGA measurements.
# [5] = Hygroscopicity (Dynamic Vapour Sorption); type: physicochemical; conditions: between 20%-90% RH, T=25° C., DVS mass change
# Description: The hygroscopicity of the crystalline forms 1, 3, 5 and 8 was evaluated using DVS-1 Dynamic Vapour Sorption equipment (Surface Measurement Systems Ltd, London, UK). The amount of 5-10 mg of each crystalline form was equilibrated at 20% RH. The mass change (%) was recorded at 30%, 40%, 50%, 60%, 70%, 80% and 90% RH at T=25° C. The equilibration condition at each point was dm/dt≤0.0003.
compound,measurement,setting,value
"Cn1cc(-c2ccc3c(c2)ncn3-c2cc(NS(=O)(=O)C3CC3)cc(-c3ccc(F)cc3F)c2)cn1 [Compound (I), N-(2′,4′-difluoro-5-(5-(1-methyl-1H-pyrazol-4-yl)-1H-benzo[d]imidazol-1-yl)-[1,1′-biphenyl]-3-yl)cyclopropanesulfonamide]",Solubility in water,Water solubility,practically insoluble
same,Bioavailability after oral administration,[1],very low
"Cn1cc(-c2ccc3c(c2)ncn3-c2cc(NS(=O)(=O)C3CC3)cc(-c3ccc(F)cc3F)c2)cn1 [Form 3, N-(2′,4′-difluoro-5-(5-(1-methyl-1H-pyrazol-4-yl)-1H-benzo[d]imidazol-1-yl)-[1,1′-biphenyl]-3-yl)cyclopropanesulfonamide hydrochloride]",Long-term stability: stable up to,"[2]; 25° C./RH 60% closed vessel, listed as Crystalline form 3, hydrochloride",Stable up to 36 months
same,Long-term stability: time after which form changed,[2]; 25° C./RH 100% open vessel,1 week
same,Long-term stability: change of crystalline form,"[2]; 25° C./RH 100% open vessel, hydrochloride",5
same,Long-term stability: change of crystalline form,"[2]; 25° C./RH 100% open vessel, listed as Crystalline form 3, hydrochloride",Change to form 5 after
same,Long-term stability: stable up to,"[2]; 40° C./RH 75% closed vessel, listed as Crystalline form 3, hydrochloride",Stable up to 12 months
same,Long-term stability: time after which form changed,[2]; 40° C./RH 75% open vessel,1 days
same,Long-term stability: change of crystalline form,"[2]; 40° C./RH 75% open vessel, hydrochloride",changes to form 8
same,Long-term stability: change of crystalline form,"[2]; 40° C./RH 75% open vessel, listed as Crystalline form 3, hydrochloride",Change to form 8 after
same,Resulting crystalline form,"[3]; 4.7% H2O in MeOH, water activity 0.17, slurry 3 days at room temperature",Form 3
same,Resulting crystalline form,"[3]; 10% H2O in MeOH, water activity 0.31, slurry 3 days at room temperature",Form 3
same,Resulting crystalline form,"[3]; MeOH, water activity 0, slurry stirred 3 days at room temperature",Form 3
same,Water activity conditions under which the crystalline form is favoured,"[3]; listed as crystalline form 3, hydrochloride",ambient to about 0.3
same,Onset temperature of disproportionation,"[4]; listed as 3, hydrochloride",171 °C
"Cn1cc(-c2ccc3c(c2)ncn3-c2cc(NS(=O)(=O)C3CC3)cc(-c3ccc(F)cc3F)c2)cn1 [Form 1, N-(2′,4′-difluoro-5-(5-(1-methyl-1H-pyrazol-4-yl)-1H-benzo[d]imidazol-1-yl)-[1,1′-biphenyl]-3-yl)cyclopropanesulfonamide hydrochloride]",Resulting crystalline form,"[3]; 16% H2O in MeOH, water activity 0.44, slurry 3 days at room temperature",Form 3 + Form 8
same,Resulting crystalline form,"[3]; 26.6% H2O in MeOH, water activity 0.59, slurry 3 days at room temperature",Form 3 + Form 8
same,Resulting crystalline form,"[3]; 45.2% H2O in MeOH, water activity 0.75, slurry 3 days at room temperature",Form 8
same,Resulting crystalline form,"[3]; 71.5% H2O in MeOH, water activity 0.88, slurry 3 days at room temperature",Form 5
same,Onset temperature of disproportionation,"[4]; listed as 1, hydrochloride",148 °C
same,Hygroscopicity,[5]; hydrochloride,particularly low hygroscopicity
"Cn1cc(-c2ccc3c(c2)ncn3-c2cc(NS(=O)(=O)C3CC3)cc(-c3ccc(F)cc3F)c2)cn1 [Form 5, N-(2′,4′-difluoro-5-(5-(1-methyl-1H-pyrazol-4-yl)-1H-benzo[d]imidazol-1-yl)-[1,1′-biphenyl]-3-yl)cyclopropanesulfonamide hydrochloride]",Water activity conditions under which the crystalline form is favoured,"[3]; listed as crystalline form 5, hydrochloride",about 0.9
same,Onset temperature of disproportionation,"[4]; listed as 5, hydrochloride",145 °C
"Cn1cc(-c2ccc3c(c2)ncn3-c2cc(NS(=O)(=O)C3CC3)cc(-c3ccc(F)cc3F)c2)cn1 [Form 8, N-(2′,4′-difluoro-5-(5-(1-methyl-1H-pyrazol-4-yl)-1H-benzo[d]imidazol-1-yl)-[1,1′-biphenyl]-3-yl)cyclopropanesulfonamide hydrochloride]",Long-term stability: stable up to,"[2]; 25° C./RH 60% closed vessel, listed as Crystalline form 8, hydrochloride",≥ 36 months
same,Long-term stability: stable up to,[2]; 25° C./RH 100% open vessel,≥ 2 months
same,Long-term stability: stable up to,"[2]; 40° C./RH 75% closed vessel, listed as Crystalline form 8, hydrochloride",≥ 6 months
same,Long-term stability: stable up to,[2]; 40° C./RH 75% open vessel,≥ 1 month
same,Stability at storage conditions (overall),"[2]; all storage conditions (25° C./RH 60%, 40° C./RH 75% closed and open, 25° C./RH 100% open)",good stability
same,Onset temperature of disproportionation,"[4]; listed as 8, hydrochloride",187 °C
same,Thermal stability against disproportionation,"[4]; TGA, compared among crystalline forms 1, 3, 5 and 8",highest thermal stability
same,Hygroscopicity,"[5]; listed as form 8, hydrochloride",practically non-hygroscopic
